# Measurements taken from patent publication US6410585B1, “Inhibitors of protein tyrosine phosphatase” (priority 1997, dated 2002).
# “And” between values parts separate entries of the source, which are not always exact repeats. Equal entries are not always repeated.
# Target: T1, human PTP1B (Homo sapiens, UniProt P18031)
# T1 construct: human PTP1B (amino acid residues 1-321); made in house; host or cells: E. coli BL21(DE3)
# T1 sequence (P18031 1-321): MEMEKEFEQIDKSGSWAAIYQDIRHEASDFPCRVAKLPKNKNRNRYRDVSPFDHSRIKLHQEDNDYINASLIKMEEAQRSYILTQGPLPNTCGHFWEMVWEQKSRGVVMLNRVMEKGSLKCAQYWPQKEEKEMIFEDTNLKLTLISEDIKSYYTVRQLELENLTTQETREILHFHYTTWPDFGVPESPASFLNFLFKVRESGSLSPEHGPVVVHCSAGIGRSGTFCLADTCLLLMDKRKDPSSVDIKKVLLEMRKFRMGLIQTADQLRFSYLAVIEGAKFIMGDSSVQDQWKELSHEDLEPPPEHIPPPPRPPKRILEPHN
# Assay: PTP1B assay, pNPP hydrolysis, assayed exactly as for PTP1
# Format: biochemical
# Details: for inhibition at 1 µM / inhibition at 10 µM / inhibition at 100 µM: Table 2, read-out: PTP1B Inhib PTP1B. % Inhib; for PTP1B Inhib PTP1B. % Inhib: Table 2
# Text: The equivalent construct of human PTP1B (amino acid residues 1-321) (cloned from a human placental library), without the GST tag and thrombin cleavage site, was inserted into a pMB replicon and transformed into E. coli BL21(DE3), a strain containing a chromosomal copy of the gene for T7 RNA polymerase under control of a lacUV5 promoter. Expression of PTP1B was induced with isopropyl thiogalactose and the soluble protein was purified by ion exchange, hydrophobic interaction and gel exclusion chromatography for use in the assay to identify PTP inhibitors.
# PTP1 activity is measured using either p-nitrophenol phosphate (pNPP) or a triphosphopeptide (that matches residues 1142 through 1153 of the β-subunit and the insulin receptor) as substrate in a 96-well microtiter plate format. An assay pH of 7.2 is used for standard assays (measured 405=9800 at pH 7.2).
# Human PTP1B, which is highly homologous to rat PTP1, was assayed exactly as described above for PTP1.
# Standard assays are conducted at room temperature in a total volume of 0.2 ml that contains Hepes buffer (50 mM, pH 7.2), NaCl (50 mM), EDTA (1 mM), DTT (1 mM), bovine serum albumin (1 mg/ml), pNPP (1 mM) and PTP1 (35 ng/ml). Compounds (2 μl of 10 mM solutions) are pipetted into wells of microtiter plates followed by 198 μl of premixed reaction mix (with PTP1 and pNPP added immediately before use). The rate of change in A405 is recorded for 60 min. Two wells on each plate contain DMSO controls and two wells contain sodium orthovanadate (1 mM) which inhibits PTP1-catalyzed hydrolysis of pNPP completely. Data are expressed as percent inhibition relative to the average of the DMSO controls measured on the same microtiter plate.
Structure (SMILES),inhibition at 1 µM (Conc 1 uM),inhibition at 10 µM (Conc 10 uM),inhibition at 100 µM (Conc 100 uM),PTP1B Inhib PTP1B. % Inhib (Conc 1 uM),PTP1B Inhib PTP1B. % Inhib (Conc 100 uM),PTP1B Inhib PTP1B. % Inhib (Conc 10 uM)
CCCCCNC(=O)C(Cc1ccc(OC(COO)COO)cc1)NC(=O)C(Cc1ccc2ccccc2c1)NC(=O)OC(C)(C)C (stereo not shown),–,29%,93%,1% and 3%,90%,–
CCCCCNC(=O)[C@H](Cc1ccc(OC(C(=O)O)C(=O)O)cc1)NC(=O)C(Cc1ccccc1)NC(=O)OC(C)(C)C (stereo partly shown),2%,8%,44%,–,–,–
CCCCCNC(=O)C(Cc1ccc(OC(COO)COO)cc1)NC(=O)N(Cc1cccc(C(=O)O)c1)Cc1cccc(C(F)(F)F)c1 (stereo not shown),3%,9%,58%,–,–,–
CCCCCNC(=O)C(Cc1ccc(OC(COO)COO)cc1)NC(=O)C(CCCCNC(=O)OCc1ccccc1)NC(=O)OC(C)(C)C (stereo not shown),6%,28%,79%,–,–,–
CCCCCNC(=O)[C@H](Cc1ccc(OC(F)C(=O)O)c(C(=O)O)c1)NC(=O)[C@H](Cc1ccccc1)NC(=O)OC(C)(C)C (stereo partly shown),34%,76%,95%,–,–,–
CCCCCNC(=O)C(Cc1ccc(OC(COO)COO)cc1)NC(=O)C(Cc1cccc2ccccc12)NC(=O)OC(C)(C)C (stereo not shown),3%,33%,86%,–,–,–
CCCCCNC(=O)[C@H](Cc1ccc(OCC(=O)O)c(C(=O)O)c1)NC(=O)C(Cc1ccccc1)NC(=O)Cn1nnnc1S (stereo partly shown),57%,91%,98%,–,–,–
CCCCCNC(=O)C(Cc1ccc(OC(COO)COO)cc1)NC(=O)C(Cc1ccccc1)NC(=O)NC(C)(C)C (stereo not shown),9%,40%,86%,–,–,–
CCCCCNC(=O)C(Cc1ccc(OC(COO)COO)cc1)NC(=O)C(Cc1c(F)c(F)c(F)c(F)c1F)NC(=O)OC(C)(C)C (stereo not shown),5%,25%,80%,–,–,–
CCCCCNC(=O)C(Cc1ccc(OC(COO)COO)cc1)NC(=O)C(CSCc1ccccc1)NC(=O)OC(C)(C)C (stereo not shown),2%,14%,75%,3%,83%,16%
CC(C)(C)OC(=O)N[C@@H](Cc1ccccc1)C(=O)N[C@H](CO)Cc1ccc(OCC(=O)O)c(C(=O)O)c1 [drawing 222],5%,31%,80%,–,–,–
CC(C)(C)OC(=O)N[C@@H](Cc1ccccc1)C(=O)N[C@@H](Cc1ccc(OCC(=O)O)c(C(=O)O)c1)C(=O)NCCCCc1ccccc1 [drawing 221],64%,93%,98%,–,–,–
CCCCCNC(=O)C(Cc1ccc(OC(COO)COO)cc1)NC(=O)CNC(=O)OCc1ccccc1 (stereo not shown),6%,19%,66%,–,–,–
CCCCCNC(=O)C(Cc1ccc(OC(COO)COO)cc1)NC(=O)C(CCSC)NC(=O)OC(C)(C)C (stereo not shown),5%,25%,74%,–,82%,30%
CCCCCNC(=O)C(Cc1ccc(OC(C(=O)O)C(=O)O)cc1)NC(=O)[C@H](Cc1c[nH]c2ccccc12)NC(=O)OC(C)(C)C (stereo partly shown),10%,44%,89%,–,–,–
CCCCCNC(=O)[C@H](Cc1ccc(OCC(=O)O)c(C(=O)NO)c1)NC(=O)[C@H](Cc1ccccc1)NC(=O)OC(C)(C)C,5%,13%,54%,–,–,–
CCCCCNC(=O)C(Cc1ccc(OC(COO)COO)cc1)NC(=O)Nc1cccc(C(=O)O)c1 (stereo not shown),17%,63%,94%,–,–,–
CCCCCNC(=O)C(Cc1ccc(OC(COO)COO)cc1)NC(=O)C(Cc1ccccc1)NS(=O)OC (stereo not shown),9%,40%,86%,–,–,–
CCCCCNC(=O)C(Cc1ccc(OC(COO)COO)cc1)NC(=O)N1CCN(C(=O)OC(C)(C)C)CC1 (stereo not shown),19%,68%,95%,–,92%,63%
CCCCCNC(=O)C(Cc1ccc(OC(COO)COO)cc1)NC(=O)N(Cc1ccccc1)Cc1ccccc1 (stereo not shown),18%,65%,95%,14%,93%,59%
CCCCCNC(=O)C(Cc1ccc(OC(COO)COO)cc1)NC(=O)C(COCc1ccccc1)NC(=O)OC(C)(C)C (stereo not shown),3%,19%,71%,–,–,–
CCCCCNC(=O)C(Cc1ccc(OC(COO)COO)cc1)NC(=O)C(Cc1ccc(O)cc1)NC(=O)OC(C)(C)C (stereo not shown),10%,50%,90%,–,–,–
CCCCCNC(=O)[C@H](Cc1ccc(OCC(=O)OC)c(C(=O)O)c1)NC(=O)[C@H](Cc1ccccc1)NC(=O)OC(C)(C)C,3%,5%,25%,–,–,–

# The next lines start with the values.
inhibition at 1 µM (Conc 1 uM),inhibition at 10 µM (Conc 10 uM),inhibition at 100 µM (Conc 100 uM),PTP1B Inhib PTP1B. % Inhib (Conc 1 uM),PTP1B Inhib PTP1B. % Inhib (Conc 100 uM),PTP1B Inhib PTP1B. % Inhib (Conc 10 uM),Structure (SMILES)
39%,85%,98%,–,–,–,CCCCCNC(=O)C(Cc1ccc(OCCOO)c(COO)c1)NC(=O)C(Cc1ccccc1)NC(=O)Cc1ccc(C(F)(F)F)cc1 (stereo not shown)
23%,78%,96%,–,–,–,CCCCCNC(=O)C(Cc1ccc(OCCOO)c(COO)c1)NC(=O)C(Cc1ccccc1)NC(=O)CCCO (stereo not shown)
64%,93%,98%,66%,–,92%,CCCCCNC(=O)C(Cc1ccc(OCCOO)c(COO)c1)NC(=O)C(Cc1ccccc1)NC(=O)CCC(=O)O (stereo not shown)
45%,87%,98%,–,–,–,CCCCCNC(=O)C(Cc1ccc(OCCOO)c(COO)c1)NC(=O)C(Cc1ccccc1)NC(=O)Cc1ccccc1 (stereo not shown)
28%,77%,96%,–,–,–,CCCCCNC(=O)C(Cc1ccc(OCCOO)c(COO)c1)NC(=O)C(Cc1ccccc1)NC(C)=O (stereo not shown)
19%,70%,96%,–,–,–,CCCCCNC(=O)C(Cc1ccc(OCCOO)c(COO)c1)NC(=O)C(Cc1ccccc1)NC(=O)CCCc1ccccc1 (stereo not shown)
37%,83%,97%,–,–,–,CCCCCNC(=O)C(Cc1ccc(OCCOO)c(COO)c1)NC(=O)C(Cc1ccccc1)NC(=O)CCOC (stereo not shown)
46%,88%,98%,–,–,–,CCCCCNC(=O)C(Cc1ccc(OCCOO)c(COO)c1)NC(=O)C(Cc1ccccc1)NC(=O)Cc1ccc(O)cc1 (stereo not shown)
15%,73%,95%,–,–,–,CCCCCNC(=O)C(Cc1ccc(OCCOO)c(COO)c1)NC(=O)C(Cc1ccccc1)NC(=O)CCNS(C)(=O)=O (stereo not shown)
4%,16%,62%,–,–,–,CCCCCNC(=O)C(Cc1ccc(OC(COO)COO)cc1)NC(=O)C(Cc1ccccc1)NS(=O)OCc1ccccc1 (stereo not shown)
47%,88%,98%,–,–,–,CCCCCNC(=O)C(Cc1ccc(OCCOO)c(COO)c1)NC(=O)C(Cc1ccccc1)NC(=O)Cc1c[nH]c2ccccc12 (stereo not shown)
43%,86%,98%,–,–,–,CCCCCNC(=O)C(Cc1ccc(OCCOO)c(COO)c1)NC(=O)C(Cc1ccccc1)NC(=O)Cc1cccc(O)c1 (stereo not shown)
